“Also recorded” adds a separate entry of the source.
Key:
TRPV1 [1] = molecular target: T1, TRPV1 (Homo sapiens, UniProt Q8NER1); test: FMP membrane potential fluorescence assay, TRPV1 transfected HEK 293 cells; assay type: cell-based
From the text: (§1) As described in greater detail below, HEK 293 cells, transiently transfected with plasmid bearing the genes encoding the various ion channels, were used to develop SpiceMatrix fingerprint assay. Indirect measurement of the changes in ion concentrations within the HEK 293 cells were made using a FMP dye and stimulation of the cells using calcium activating agents. Described below are the conditions for screening using TRPM5. Screening conditions for other TRP ion channels were similar to those described unless otherwise indicated.
(§2) 1.0×10^6 HEK 293 cells (ATCC) were plated in each well of a 6-well tissue culture dish overnight. The following day, cells were transfected with 4 μg of a pcDNA3.2 vector containing TRPM5 cDNA and 8 μl of Lipofectamine 2000 (Invitrogen), according to the manufacturer's protocol, and incubated overnight. […]
(§3) Once the expression of TRPM5 was confirmed in the HEK cells, 100 μl of the Blue or Red FMP dye (Molecular Devices) was added to each well of plates seeded with the transiently transfected cells. […] The plate was read in a FLEXStation microplate reader (Molecular Devices) with an excitation of 530 nm and an emission of 565 nm. The fluorescence was monitored for 3 minutes upon exposure of the cells to a calcium activating agent (carbachol, thrombin peptide or ATP). […]

TRPM5 = molecular target: T2, TRPM5 (Homo sapiens, UniProt Q9NZQ8); test: FMP membrane potential fluorescence assay, TRPM5 transfected HEK 293 cells; assay type: cell-based
T2 construct: The full length TRPM5 was excised from the TOPO TA vector; expressed in transfected cells; host or cells: HEK 293 (ATCC)
T2 sequence (Q9NZQ8 1-1165): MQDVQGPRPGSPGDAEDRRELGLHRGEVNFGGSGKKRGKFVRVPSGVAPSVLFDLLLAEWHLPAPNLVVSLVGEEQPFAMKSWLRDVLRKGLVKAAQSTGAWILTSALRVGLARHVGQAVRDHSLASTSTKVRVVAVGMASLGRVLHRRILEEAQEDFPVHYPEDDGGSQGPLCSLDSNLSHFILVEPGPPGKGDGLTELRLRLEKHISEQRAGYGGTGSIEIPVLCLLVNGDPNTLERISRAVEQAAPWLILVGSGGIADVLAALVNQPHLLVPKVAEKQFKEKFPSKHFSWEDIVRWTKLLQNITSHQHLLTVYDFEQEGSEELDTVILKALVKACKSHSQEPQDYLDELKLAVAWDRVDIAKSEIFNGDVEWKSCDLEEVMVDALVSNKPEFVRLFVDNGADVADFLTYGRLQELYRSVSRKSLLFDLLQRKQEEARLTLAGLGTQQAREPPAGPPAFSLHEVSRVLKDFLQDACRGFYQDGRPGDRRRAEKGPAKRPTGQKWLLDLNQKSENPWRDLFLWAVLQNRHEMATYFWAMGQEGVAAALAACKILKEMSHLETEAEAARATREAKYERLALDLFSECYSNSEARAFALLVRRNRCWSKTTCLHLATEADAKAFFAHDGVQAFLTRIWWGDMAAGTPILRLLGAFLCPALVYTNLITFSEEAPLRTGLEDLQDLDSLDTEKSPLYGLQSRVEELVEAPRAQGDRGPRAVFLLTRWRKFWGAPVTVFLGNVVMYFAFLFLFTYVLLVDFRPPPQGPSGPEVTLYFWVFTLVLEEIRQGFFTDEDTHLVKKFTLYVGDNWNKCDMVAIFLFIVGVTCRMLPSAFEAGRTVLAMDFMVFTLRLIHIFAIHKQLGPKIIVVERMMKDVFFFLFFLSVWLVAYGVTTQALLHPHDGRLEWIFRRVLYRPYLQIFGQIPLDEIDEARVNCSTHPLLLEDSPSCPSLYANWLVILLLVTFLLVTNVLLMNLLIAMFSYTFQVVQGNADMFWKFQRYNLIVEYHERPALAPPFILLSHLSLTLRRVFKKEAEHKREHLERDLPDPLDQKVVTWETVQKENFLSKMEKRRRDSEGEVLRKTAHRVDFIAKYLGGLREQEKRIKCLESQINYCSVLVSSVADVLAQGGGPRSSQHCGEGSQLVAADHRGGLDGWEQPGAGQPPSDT
From the text: as §1, with “indicated. […]” for “indicated.”
Once the expression of TRPM5 was confirmed in the HEK cells, 100 μl of the Blue or Red FMP dye (Molecular Devices) was added to each well of plates seeded with the transiently transfected cells. […] The plate was read in a FLEXStation microplate reader (Molecular Devices) with an excitation of 530 nm and an emission of 565 nm. The fluorescence was monitored for 3 minutes upon exposure of the cells to a calcium activating agent (carbachol, thrombin peptide or ATP).
For screening of taste compounds, sample dilution sets (four 384 sample plates) were tested in 5, dye-loaded, cell lines to yield 20 assay plates for data collection. […] To identify samples with agonist activity, 10 μl of samples or standards were added to the cell plate, and sample agonist response fluorescent readings taken for 3 minutes. […]

TRPM8 [2] = molecular target: T3, TRPM8 (Homo sapiens, UniProt Q7Z2W7); test: FMP membrane potential fluorescence assay, TRPM8 transfected HEK 293 cells; assay type: cell-based; conditions: FIG. 1D, FLIPR
T3 sequence (Q7Z2W7 whole entry): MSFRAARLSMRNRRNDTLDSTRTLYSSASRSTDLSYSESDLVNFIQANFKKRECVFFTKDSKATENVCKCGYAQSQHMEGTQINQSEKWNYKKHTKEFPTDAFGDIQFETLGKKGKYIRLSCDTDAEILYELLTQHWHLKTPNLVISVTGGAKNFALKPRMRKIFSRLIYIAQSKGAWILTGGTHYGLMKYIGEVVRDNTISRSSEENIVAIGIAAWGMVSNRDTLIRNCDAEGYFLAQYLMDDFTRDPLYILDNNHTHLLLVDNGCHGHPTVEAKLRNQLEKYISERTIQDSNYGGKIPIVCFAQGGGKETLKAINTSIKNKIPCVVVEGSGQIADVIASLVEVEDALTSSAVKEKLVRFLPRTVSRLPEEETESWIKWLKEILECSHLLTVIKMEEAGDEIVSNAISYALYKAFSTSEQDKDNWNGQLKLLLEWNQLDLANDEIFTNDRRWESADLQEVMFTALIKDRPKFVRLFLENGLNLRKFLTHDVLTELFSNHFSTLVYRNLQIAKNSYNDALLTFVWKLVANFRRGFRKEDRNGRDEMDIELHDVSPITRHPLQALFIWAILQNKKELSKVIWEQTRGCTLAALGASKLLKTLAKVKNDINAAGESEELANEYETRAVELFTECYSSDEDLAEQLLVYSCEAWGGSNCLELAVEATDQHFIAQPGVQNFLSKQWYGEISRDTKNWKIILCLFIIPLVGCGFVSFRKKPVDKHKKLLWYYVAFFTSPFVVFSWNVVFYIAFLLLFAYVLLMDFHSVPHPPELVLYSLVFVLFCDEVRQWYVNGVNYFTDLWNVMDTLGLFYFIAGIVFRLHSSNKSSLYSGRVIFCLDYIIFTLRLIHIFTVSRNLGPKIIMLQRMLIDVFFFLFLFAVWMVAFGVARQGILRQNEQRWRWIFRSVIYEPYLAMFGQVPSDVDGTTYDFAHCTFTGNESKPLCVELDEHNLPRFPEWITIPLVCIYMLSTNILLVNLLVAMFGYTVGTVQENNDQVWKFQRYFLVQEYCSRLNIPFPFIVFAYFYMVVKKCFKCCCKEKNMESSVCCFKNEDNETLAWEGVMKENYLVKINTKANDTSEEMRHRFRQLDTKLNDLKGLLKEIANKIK
From the text: as §1, §2, §3

TRPM8 [3] = molecular target: T3, TRPM8; conditions: literature reports; cited from earlier work
TRPA1 [4] = molecular target: T4, TRPA1 (Homo sapiens, UniProt O75762); test: FMP membrane potential fluorescence assay, TRPA1 transfected HEK 293 cells; assay type: cell-based; conditions: for relative stimulation of TRPA1 (SpiceMatrix reactivity): FIG. 2A, relative to untransfected HEK-293 cells (Parentals), among 68 compounds
T4 sequence (O75762 whole entry): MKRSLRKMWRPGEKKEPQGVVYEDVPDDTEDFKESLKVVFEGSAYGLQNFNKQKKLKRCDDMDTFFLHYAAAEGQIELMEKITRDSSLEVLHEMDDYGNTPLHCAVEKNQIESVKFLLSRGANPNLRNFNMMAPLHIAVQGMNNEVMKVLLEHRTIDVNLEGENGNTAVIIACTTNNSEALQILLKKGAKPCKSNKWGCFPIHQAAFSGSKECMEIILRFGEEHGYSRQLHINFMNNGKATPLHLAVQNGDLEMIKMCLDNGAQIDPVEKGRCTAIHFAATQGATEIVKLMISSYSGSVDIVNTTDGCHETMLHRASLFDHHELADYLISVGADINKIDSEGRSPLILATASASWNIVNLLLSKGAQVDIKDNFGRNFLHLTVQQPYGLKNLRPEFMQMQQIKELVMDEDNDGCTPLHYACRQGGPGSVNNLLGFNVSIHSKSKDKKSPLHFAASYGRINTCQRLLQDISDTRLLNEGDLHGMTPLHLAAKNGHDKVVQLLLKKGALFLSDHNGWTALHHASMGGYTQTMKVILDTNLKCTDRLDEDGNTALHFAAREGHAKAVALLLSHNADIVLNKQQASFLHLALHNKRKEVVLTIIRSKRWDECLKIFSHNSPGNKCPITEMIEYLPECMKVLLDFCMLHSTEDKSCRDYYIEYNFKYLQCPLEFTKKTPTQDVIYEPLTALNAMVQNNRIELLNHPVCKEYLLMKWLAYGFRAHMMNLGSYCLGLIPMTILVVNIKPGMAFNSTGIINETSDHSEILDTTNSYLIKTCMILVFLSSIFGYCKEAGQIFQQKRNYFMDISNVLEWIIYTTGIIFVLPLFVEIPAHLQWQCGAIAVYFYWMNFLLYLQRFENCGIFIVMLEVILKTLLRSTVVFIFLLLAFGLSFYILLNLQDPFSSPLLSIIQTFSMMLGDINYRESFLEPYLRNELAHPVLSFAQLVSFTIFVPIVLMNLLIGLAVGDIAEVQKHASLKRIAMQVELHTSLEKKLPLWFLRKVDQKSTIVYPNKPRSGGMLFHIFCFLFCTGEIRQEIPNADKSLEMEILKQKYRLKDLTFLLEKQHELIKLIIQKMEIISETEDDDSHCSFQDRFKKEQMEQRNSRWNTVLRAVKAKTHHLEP
From the text: as §1
1.0×10^6 HEK 293 cells (ATCC) were plated in each well of a 6-well tissue culture dish overnight. The following day, cells were transfected with 4 μg of a pcDNA3.2 vector containing TRPM5 cDNA and 8 μl of Lipofectamine 2000 (Invitrogen), according to the manufacturer's protocol, and incubated overnight. The following day, transfected cells were trypsinized and seeded into 96-well black, clear bottom, poly-D-lysine plates (Corning) at a density of 70,000 cells/well in a 100 μl volume and incubated in a 37° C./5% CO2 incubator overnight.
Once the expression of TRPM5 was confirmed in the HEK cells, 100 μl of the Blue or Red FMP dye (Molecular Devices) was added to each well of plates seeded with the transiently transfected cells. The plate was then incubated in a 37° C./5% CO2 incubator for 1 hour. The plate was read in a FLEXStation microplate reader (Molecular Devices) with an excitation of 530 nm and an emission of 565 nm. The fluorescence was monitored for 3 minutes upon exposure of the cells to a calcium activating agent (carbachol, thrombin peptide or ATP).
For screening of taste compounds, sample dilution sets (four 384 sample plates) were tested in 5, dye-loaded, cell lines to yield 20 assay plates for data collection. One cell plate, a sample plate, and an agonist sample source plate were placed in the FLIPR. To identify samples with agonist activity, 10 μl of samples or standards were added to the cell plate, and sample agonist response fluorescent readings taken for 3 minutes. To identify samples with antagonist activity, agonist, e.g. 100 μM cinnamaldehyde for TRPA1, was added to all wells and agonist response fluorescent readings were taken for 2 minutes. Sample that block this response were nominally antagonists.

TRPA1 [5] = molecular target: T4, TRPA1; conditions: literature reports; cited from earlier work
mouse TRPA1 = molecular target: T5, mouse TRPA1 (Mus musculus, UniProt Q8BLA8); conditions: mouse TRPA1-CHO cells, literature report; cited from earlier work
T5 construct: host or cells: CHO
T5 sequence (Q8BLA8 whole entry): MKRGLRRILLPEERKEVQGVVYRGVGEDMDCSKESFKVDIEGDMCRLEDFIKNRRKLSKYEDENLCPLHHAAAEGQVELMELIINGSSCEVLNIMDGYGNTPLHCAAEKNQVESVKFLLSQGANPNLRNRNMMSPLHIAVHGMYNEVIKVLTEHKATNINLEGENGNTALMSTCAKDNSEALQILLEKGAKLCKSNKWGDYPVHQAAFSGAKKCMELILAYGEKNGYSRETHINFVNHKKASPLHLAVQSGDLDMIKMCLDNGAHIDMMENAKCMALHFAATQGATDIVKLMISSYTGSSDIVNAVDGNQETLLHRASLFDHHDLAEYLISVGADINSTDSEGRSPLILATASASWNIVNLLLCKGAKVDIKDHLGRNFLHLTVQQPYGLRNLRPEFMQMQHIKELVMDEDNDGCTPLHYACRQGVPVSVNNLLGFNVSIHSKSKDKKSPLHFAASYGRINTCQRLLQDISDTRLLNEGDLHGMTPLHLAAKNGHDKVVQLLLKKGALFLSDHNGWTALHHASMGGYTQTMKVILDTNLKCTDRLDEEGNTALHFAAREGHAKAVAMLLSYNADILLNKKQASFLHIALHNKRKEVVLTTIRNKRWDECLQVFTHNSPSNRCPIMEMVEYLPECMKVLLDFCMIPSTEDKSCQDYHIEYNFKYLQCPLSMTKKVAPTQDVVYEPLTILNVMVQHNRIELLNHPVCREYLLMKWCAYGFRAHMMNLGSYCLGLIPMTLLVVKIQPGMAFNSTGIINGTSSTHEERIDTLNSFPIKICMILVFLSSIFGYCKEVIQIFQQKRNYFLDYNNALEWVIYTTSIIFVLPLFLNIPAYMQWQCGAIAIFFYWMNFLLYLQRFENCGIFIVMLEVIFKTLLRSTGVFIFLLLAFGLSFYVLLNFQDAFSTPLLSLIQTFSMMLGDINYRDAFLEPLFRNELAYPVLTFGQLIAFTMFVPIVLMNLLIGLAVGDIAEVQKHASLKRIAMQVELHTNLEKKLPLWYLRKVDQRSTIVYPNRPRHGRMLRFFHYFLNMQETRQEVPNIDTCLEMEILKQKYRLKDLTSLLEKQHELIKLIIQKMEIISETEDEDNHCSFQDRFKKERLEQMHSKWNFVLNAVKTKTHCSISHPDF

TRPV1 [6] = molecular target: T1, TRPV1; conditions: literature report (Calixto et al.); cited from earlier work

T1 sequence (Q8NER1 whole entry): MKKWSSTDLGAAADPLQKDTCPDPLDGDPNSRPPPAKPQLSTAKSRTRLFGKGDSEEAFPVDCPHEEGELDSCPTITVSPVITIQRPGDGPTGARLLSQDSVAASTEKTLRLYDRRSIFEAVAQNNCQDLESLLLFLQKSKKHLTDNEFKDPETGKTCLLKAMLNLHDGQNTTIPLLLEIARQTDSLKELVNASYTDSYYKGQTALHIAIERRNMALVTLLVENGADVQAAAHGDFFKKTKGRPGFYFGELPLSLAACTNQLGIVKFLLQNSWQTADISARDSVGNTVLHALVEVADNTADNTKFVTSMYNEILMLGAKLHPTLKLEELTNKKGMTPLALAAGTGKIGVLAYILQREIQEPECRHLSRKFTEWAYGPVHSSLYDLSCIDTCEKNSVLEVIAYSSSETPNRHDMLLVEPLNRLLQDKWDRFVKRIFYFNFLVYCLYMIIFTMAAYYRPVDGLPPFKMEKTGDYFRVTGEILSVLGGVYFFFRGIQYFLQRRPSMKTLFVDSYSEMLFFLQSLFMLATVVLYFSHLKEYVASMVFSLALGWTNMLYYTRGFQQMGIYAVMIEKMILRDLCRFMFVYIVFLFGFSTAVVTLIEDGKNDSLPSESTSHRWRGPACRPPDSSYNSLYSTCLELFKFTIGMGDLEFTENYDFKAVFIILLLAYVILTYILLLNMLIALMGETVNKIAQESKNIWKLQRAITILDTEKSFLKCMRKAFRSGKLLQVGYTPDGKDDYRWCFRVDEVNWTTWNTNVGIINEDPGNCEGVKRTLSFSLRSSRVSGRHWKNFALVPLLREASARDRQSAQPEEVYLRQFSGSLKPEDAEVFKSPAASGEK

Row | SMILES | activation of TRPM8 (TRPM8 [3]) | relative stimulation of TRPA1 (SpiceMatrix reactivity) (TRPA1 [4]) | activation of TRPA1 (TRPA1 [5]) | increase in intracellular free Ca2+ (mouse TRPA1) | activation of TRPV1 (TRPV1 [6]) | also measured
1 | COc1cc(CNC(=O)CCCC/C=C/C(C)C)ccc1O [capsaicin] | – | – | – | – | – | change in relative fluorescent intensity of a voltage-sensitive dye (TRPV1 [1]; FIG. 1C, TRPV1 transfected cells, FMP dye, FLIPR): strong spike in relative fluorescence; also recorded: activates TRPV1
2 | C[N+](C)(C)CCOC(N)=O [carbachol] | – | – | – | – | – | change in relative fluorescent intensity of a voltage-sensitive dye (TRPM5; FIG. 1B, TRPM5 transfected cells, FMP dye, FLIPR): strong spike in relative fluorescence; also recorded: increases TRPM5
3 | CC1CCC(C(C)C)C(O)C1 (stereo not shown) [menthol] | activate the TRPM8 | – | – | – | – | change in relative fluorescent intensity of a voltage-sensitive dye (TRPM8 [2]): strong spike in relative fluorescence; also recorded: activates TRPM8
4 | CC1CCC(C(C)C)C(O)C1 (single isomer, unassigned; (-)) [(−) menthol] | – | greatest stimulation of TRPA1 | – | – | – | –
5 | C=CCN=C=S [allyl isothiocyanate] | – | highly reactive | specific activators of TRPA1 | – | – | relative stimulation of TRPM5 (SpiceMatrix reactivity) (TRPM5; FIG. 2, relative to untransfected HEK-293 cells (Parentals)): highly reactive
6 | CCCCC[C@H](O)CC(=O)CCc1ccc(O)c(OC)c1 [gingerol] | activate | – | activate | sharp increase | activate | relative stimulation of TRPV1 (SpiceMatrix reactivity) (TRPV1 [1]; FIG. 2A, relative to untransfected HEK-293 cells (Parentals), among 68 compounds): highest degree of stimulation to TRPV1
7 | C=CCc1ccc(O)c(OC)c1 [eugenol] | activate | – | activate | sharp increase | activate | –
8 | O=CC=Cc1ccccc1 [cinnamaldehyde] | – | greatest stimulation of TRPA1 | activated; also recorded: specific activators of TRPA1 | – | – | change in relative fluorescent intensity of a voltage-sensitive dye (TRPA1 [4]; FIG. 1A, TRPA1 transfected cells, FMP dye, FLIPR): strong spike in relative fluorescence; also recorded: activates TRPA1
9 | CCCCCc1cc(O)c2c(c1)OC(C)(C)[C@@H]1CCC(C)=C[C@@H]21 [A^9-tetrahydrocannabinol] | – | – | activated | – | – | –
10 | COC(=O)c1ccccc1O [methyl salicylate] | activate | – | activate | sharp increase | activate | –
